# PMC5308787, “Isoprenoid-phospholipid conjugates as potential therapeutic agents: Synthesis, characterization and antiproliferative studies” (PLoS ONE, 2017)
# Legend:
# [1] = test system: MV4-11 (human biphenotypic B myelomonocytic leukaemia); assay: Antiproliferative MTT assay, 72 h exposure; type: cell-based
# Procedure: (§1) The biological studies were performed in vitro using human cancer cell lines: MV4-11 (human biphenotypic B myelomonocytic leukaemia), A-549 (non-small cell lung cancer), MCF-7 (breast cancer), LoVo (colon cancer), LoVo/DX (colon cancer drug resistant), HepG2 (liver cancer) and BALB/3T3 (normal mice fibroblasts). These lines were obtained from American Type Culture Collection (Rockville, Maryland, U.S.A.). The cell line is being maintained in the Institute of Immunology and Experimental Therapy, Wroclaw, Poland. All cell lines were grown at 37°C with 5% CO2 humidified atmosphere and were cultured in cultured medium according to the method described before.
# (§2) Prior to usage, the compounds were dissolved in DMSO or in mixture of 99.8% ethanol and DMSO (1:1) to the concentration of 25 or 50 mM, and subsequently diluted in culture medium to reach the required concentrations (ranging from 5 to 625 μM).
# (§3) Twenty-four hours prior to the addition of tested compounds, the cells were plated in 96-well plates (Sarstedt, Germany) at a density of 1 × 10^4 cells per well in 100 μL of culture medium. The assay was performed after 72 h of exposure to varying concentrations of the tested agents. The in vitro cytotoxic effect of tested agents was examined using the MTT (for MV4-11 cells) or SRB assay which were described previously. Each compound in each concentration was tested in triplicate in a single experiment, which was repeated 3–5 times.
# (§4) The results of antiproliferative activity were given as IC50 values. Using this parameter we calculated also the resistance indexes (RI) dividing the IC50 values of selected compounds estimated for drug resistant cell LOVO/DX line by respective values designated for drug sensitive LoVo line. According to Harker et al. three categories of the cells could be distinguished: (a) the cells are drug-sensitive—if the ratio approaches 0–2; (b) the cells are moderately drug-resistant—if the ratio ranges from 2 to 10; (c) the cells are markedly drug-resistant—if the ratio is higher than 10.
# [2] = test system: A-549 (non-small cell lung cancer); assay: Antiproliferative SRB assay, 72 h exposure; type: cell-based, human; details: n.a. = no activity in concentration of 5, 25, 125, 625 μM
# Procedure: as §1, §2, §3, §4
# LoVo (colon cancer) = assay: Antiproliferative SRB assay, 72 h exposure; type: cell-based, human; details: SRB, 72 h, mean ± SD of 3–5 experiments, n.a. = no activity in concentration of 5, 25, 125, 625 μM
# Procedure: as §1, §2, §3, §4
# MCF-7 (breast cancer) = assay: Antiproliferative SRB assay, 72 h exposure; type: cell-based, human; details: n.a. = no activity in concentration of 5, 25, 125, 625 μM
# Procedure: as §1, §2, §3, §4
# [3] = test system: BALB/3T3 (normal mice fibroblasts); assay: Antiproliferative SRB assay, 72 h exposure; type: cell-based; details: n.a. = no activity in concentration of 5, 25, 125, 625 μM
# Procedure: as §1, §2, §3, §4
# HepG2 (liver cancer) = assay: Antiproliferative SRB assay, 72 h exposure; type: cell-based, human; details: n.a. = no activity in concentration of 5, 25, 125, 625 μM
# Procedure: as §1, §2, §3, §4
# [4] = test system: LoVo/DX (colon cancer drug resistant); assay: Antiproliferative SRB assay, 72 h exposure; type: cell-based, human; details: mean ± SD of 3–5 experiments, n.a. = no activity in concentration of 5, 25, 125, 625 μM
# Procedure: as §1, §2, §3, §4
# [5] = test system: drug resistant LOVO/DX line vs drug sensitive LoVo line; assay: Resistance index (RI): IC50 LOVO/DX divided by IC50 LoVo; type: cell-based, human; details: for Resistance index (RI): RI = IC50 resistant line / IC50 non-resistant line, 0<RI<2 able to overcome drug resistance, 2<RI<10 moderate ability, RI>10 no influence
# From the text: as §4
# [6] = mean ± SD of 3–5 independent experiments
# [7] = Homo sapiens, MV4-11, mean ± SD of 3–5 independent experiments
# [8] = Homo sapiens, A549, mean ± SD of 3–5 experiments
# [9] = Homo sapiens, HepG2, mean ± SD of 3–5 experiments
# [10] = Homo sapiens, MCF7, mean ± SD of 3–5 experiments
# [11] = Mus musculus, BALB/3T3, mean ± SD of 3–5 experiments
SMILES,"IC50 [1, 7] [µM]","IC50 [2, 8] [µM]",IC50 (HepG2 (liver cancer); [9]) [µM],"IC50 (LoVo (colon cancer); Homo sapiens, LoVo) [µM]","IC50 ([4]; Homo sapiens, LoVo/DX) [µM]",IC50 (MCF-7 (breast cancer); [10]) [µM],"IC50 [3, 11] [µM]",other results
"CCCCCCCCCCCCCCCC(=O)OC[C@H](COP(=O)([O-])OCC[N+](C)(C)C)OC(=O)CCCCCCCCCCCCCCC [DPPC, reference compound]",,,,,,,,"IC50 [1, 6]: 179 ± 30.2 µM; IC50 ([2]; mean ± SD of 3–5 experiments): 230 ± 31.3 µM; IC50 (LoVo (colon cancer)): 274 ± 17.1 µM; IC50 (MCF-7 (breast cancer); mean ± SD of 3–5 experiments): 398 ± 194 µM; IC50 ([3]; mean ± SD of 3–5 experiments): 48.8 ± 2.1 µM"
"C=CC(C)(CCCC(C)CCCC(C)CCCC(C)C)CC(=O)O (centres unmarked) [4 (PHYTA), 3,7,11,15-Tetramethyl-3-vinylhexadecanoic acid]",39.3 ± 5.85,,,,,,,
"C=CC(C)(CCC=C(C)C)CC(=O)O[C@H](COC(=O)CCCCCCCCCCCCCCC)COP(=O)([O-])OCC[N+](C)(C)C (stereo partly drawn) [Compound 7a, (2’R)-1’-palmitoyl-2’-[(3R)-3,7-dimethyl-3-vinylocta-6-enyl]-sn-glycero-3’-phosphocholine + (2’R)-1’-palmitoyl-2’-[(3S)-3,7-dimethyl-3-vinylocta-6-enyl]-sn-glycero-3’-phosphocholine]",95 ± 15.2,72.6 ± 1.6,159 ± 31.2,57.4 ± 0.7,154 ± 7.9,66.6 ± 4.2,246 ± 13.9,Resistance index (RI) [5]: 1.91; able to overcome the barrier of P-gp-dependent resistance ([5]; judged from RI): exception
C=CC(C)(CCC=C(C)C)CC(=O)OC[C@H](COP(=O)([O-])OCC[N+](C)(C)C)OC(=O)CCCCCCCCCCCCCCC (some centres unmarked) [Compound 9a],31.8 ± 1.62,38.3 ± 6.7,59.2 ± 4.6,32.8 ± 5.1,52.7 ± 3.3,40 ± 1.9,57.6 ± 1,
"N.N.[Cl][Pt][Cl] [Cisplatin, cisplatin, reference compound]",,,,,,,,"IC50 [1, 6]: 1.3 ± 0.47 µM; IC50 ([2]; mean ± SD of 3–5 experiments): 8.6 ± 0.7 µM; IC50 (HepG2 (liver cancer); mean ± SD of 3–5 experiments): 2.38 ± 0.64 µM; IC50 (LoVo (colon cancer)): 2.56 ± 0.35 µM; IC50 [4]: 3.17 ± 0.2 µM; IC50 (MCF-7 (breast cancer); mean ± SD of 3–5 experiments): 8.1 ± 0.03 µM; IC50 ([3]; mean ± SD of 3–5 experiments): 4.2 ± 1.1 µM"
C=CC(C)(CCCC(C)CCCC(C)CCCC(C)C)CC(=O)OC[C@H](COP(=O)([O-])OCC[N+](C)(C)C)OC(=O)CC(C)(C=C)CCCC(C)CCCC(C)CCCC(C)C (some centres unmarked) [Compound 6d],42.4 ± 9.52,,,,,,,
"CCCCCCCCCCCCCCCC(=O)O [Palmitic acid, reference compound]",161 ± 78.9,56.4 ± 1.6,275 ± 85.2,42.1 ± 4.6,86.3 ± 21.3,123 ± 63.4,60.4 ± 4,
C=CC(C)(CCCC(C)CCCC(C)CCCC(C)C)CC(=O)O[C@H](COC(=O)CCCCCCCCCCCCCCC)COP(=O)([O-])OCC[N+](C)(C)C (some centres unmarked) [Compound 7d],259 ± 32.5,,,,,,,
"CCC/C=C1/C(C)(C)CCCC1(C)CC(=O)OC[C@H](COP(=O)([O-])OCC[N+](C)(C)C)OC(=O)CCCCCCCCCCCCCCC (stereo partly drawn) [Compound 9c, (2’R)-1’-{2-[(3R,2""E)-2""-butylidene-1"",3"",3""-trimethyl]cyclohexyl}acetyl-2’-palmitoyl-sn-glycero-3’-phospocholine + (2’R)-1’-{2-[(3S,2""E)-2""-butylidene-1"",3"",3""-trimethyl]cyclohexyl}acetyl-2’-palmitoyl-sn-glycero-3’-phospocholine]",50 ± 9,68.3 ± 1.5,303 ± 77.6,61.5 ± 4.84,75.5 ± 8.1,102 ± 11.2,292 ± 41.5,
C=CC(C)(CCC=C(C)C)CC(=O)OC[C@@H](O)COP(=O)([O-])OCC[N+](C)(C)C (some centres unmarked) [Compound 8a],269 ± 18,,,245 ± 68.5,469 ± 3.2,372 ± 28.1,,Resistance index (RI) [5]: 1.61
C=CC(C)(CCC=C(C)C)CC(=O)OC[C@H](COP(=O)([O-])OCC[N+](C)(C)C)OC(=O)CC(C)(C=C)CCC=C(C)C (some centres unmarked) [Compound 6a],50.1 ± 3.5,263 ± 19.7,286.4 ± 1.3,230 ± 6.9,245 ± 19.7,209 ± 12.9,280 ± 8.2,
"C=CC(C)(CCC=C(C)C)CC(=O)O (centres unmarked) [1 (GERA), 3,7-dimethyl-3-vinyloct-6-enoic acid]",256 ± 86.1,301 ± 66.9,517 ± 98.3,329 ± 54.5,281 ± 13.6,310 ± 84,,Resistance index (RI) [5]: 0.85
C=CC(C)(CCCC(C)CCCC(C)CCCC(C)C)CC(=O)OC[C@@H](O)COP(=O)([O-])OCC[N+](C)(C)C (some centres unmarked) [Compound 8d],47.4 ± 6.35,,,,,,,
C=CC(C)(CC/C=C(\C)CCC=C(C)C)CC(=O)OC[C@H](COP(=O)([O-])OCC[N+](C)(C)C)OC(=O)CCCCCCCCCCCCCCC (some centres unmarked) [Compound 9b],299 ± 39.3,,,269 ± 29.9,537 ± 61.2,489 ± 57.7,,
"COc1cccc2c1C(=O)c1c(O)c3c(c(O)c1C2=O)C[C@@](O)(C(=O)CO)C[C@@H]3O[C@H]1C[C@H](N)[C@H](O)[C@H](C)O1 [Doxorubicin, doxorubicin, reference compound]",,,,,,,,Resistance index (RI) [5]: 55.81
"CCC/C=C1/C(C)(C)CCCC1(C)CC(=O)OC[C@H](COP(=O)([O-])OCC[N+](C)(C)C)OC(=O)CC1(C)CCCC(C)(C)/C1=C/CCC (stereo partly drawn) [Compound 6c, (2’R)-1’,2’-di{2-[(3R,2""E)-2""-butylidene-1"",3"",3""-trimethyl]cyclohexyl}acetyl-sn-glycero-3’-phospocholine + (2’R)-1’,2’-di{2-[(3S,2""E)-2""-butylidene-1"",3"",3""-trimethyl]cyclohexyl}acetyl-sn-glycero-3’-phospocholine]",38.6 ± 11.1,52.3 ± 1.9,56.7 ± 0.1,53.1 ± 3.6,56.9 ± 0.2,57.8 ± 2.6,57.3 ± 0.3,
"CCC/C=C1/C(C)(C)CCCC1(C)CC(=O)OC[C@@H](O)COP(=O)([O-])OCC[N+](C)(C)C (stereo partly drawn) [Compound 8c, (2’R)-1’-{2-[(3R,2""E)-2""-butylidene-1"",3"",3""-trimethyl]cyclohexyl}acetyl-2’-hydroxy-sn-glycero-3’-phospocholine + (2’R)-1’-{2-[(3S,2""E)-2""-butylidene-1"",3"",3""-trimethyl]cyclohexyl}acetyl-2’-hydroxy-sn-glycero-3’-phospocholine]",203 ± 15,,,284 ± 9.7,382 ± 32.4,470 ± 52.9,,Resistance index (RI) [5]: 1.23
C=CC(C)(CCCC(C)CCCC(C)CCCC(C)C)CC(=O)OC[C@H](COP(=O)([O-])OCC[N+](C)(C)C)OC(=O)CCCCCCCCCCCCCCC (some centres unmarked) [Compound 9d],259 ± 37,,,,,,,
